Here are results for one molecule from paper doi:10.1101/2025.05.17.654689v2 (biorxiv, 2025).

The assay has as its system QgIspS1-like (ΔTP-QgIspS1-like-6×His). Put plainly: GC-MS. The assay is classed as biochemical, Quercus glauca. Conditions: 20 mM MgCl2, 37 °C, 30 min; from formation of the main product trans-β-ocimene.

One may read the Km as the substrate concentration at which the rate is half of its maximum. Regarding `CC(C)=CCC/C(C)=C/COP(=O)(O)OP(=O)(O)O` [GPP], the Km worked out at 180 ± 40 µM.
